Experimental data: ChEMBL document CHEMBL4043233, “A structural investigation of FISLE-412, a peptidomimetic compound derived from saquinavir that targets lupus autoantibodies” (Bioorg Med Chem Lett, 2017)
Activity calls are given as the source filed them. The calls are words filed in the database; no cut-off is given here.

What was measured:
[1] = (§1) Inhibition of D-DWEYS binding to mouse anti-dsDNA monoclonal antibody R4A pretreated for 1 hr followed by D-DWEYS peptide addition measured after 1 hr by ELISA
Mus musculus [2] = organism: Mus musculus; assay: as §1
Mus musculus [3] = organism: Mus musculus; assay: Inhibition of mouse glomerular binding to mouse anti-dsDNA monoclonal antibody R4A at 50 uM pretreated for 1 hr followed by glomerular addition by microscopic analysis

Structure (SMILES) | IC50 ([1]; read-out: IC50) | IC50 [1] | other results
CC(C)(C)NC[C@@H]1CC2CCCCC2CN1C[C@@H](O)[C@H](Cc1ccccc1)NC(=O)c1ccc2ccccc2n1 (stereo partly drawn) | 5.8 µM |  | inhibition (Mus musculus [2]): Dose-dependent effect; inhibition (Mus musculus [3]): Active
O=C(O)c1ccc2ccccc2n1 [QUINALDIC ACID] |  | Not Active | 
NCC[C@@H](CN[C@@H](Cc1ccccc1)[C@H](O)CN1CCOCC1)NC(=O)c1ccc2ccccc2c1 |  | Not Active | 
CC(C)(C)NC[C@@H]1CC2CCCCC2CN1C[C@@H](O)[C@H](Cc1ccccc1)NC(=O)c1ccc2ccccc2c1 (stereo partly drawn) | 6.8 µM |  | 
NCC[C@@H](CN[C@H](CO)Cc1ccccc1)NCC1CCc2ccccc2N1 (stereo partly drawn) |  | Not Active | 
CC(C)(C)NC[C@@H]1CC2CCCCC2CN1C[C@@H](O)[C@@H](N)Cc1ccccc1 (stereo partly drawn) |  |  | inhibition (Mus musculus [2]; concentration not given here): < 20%
OCC1Nc2ccccc2CC1O (stereo not drawn) |  | Not Active | 
CC(C)(C)NC(=O)[C@@H]1CC2CCCCC2CN1C[C@@H](O)[C@H](Cc1ccccc1)NC(=O)c1ccc2ccccc2c1 (stereo partly drawn) | > 100 µM |  | 
CC(C)(C)NC[C@@H]1CC2CCCCC2CN1 (stereo partly drawn) |  | Not Active | 
CC(C)(C)NC(=O)[C@@H]1CC2CCCCC2CN1C[C@@H](O)[C@H](Cc1ccccc1)NC(=O)[C@H](CCN)NCc1ccc2ccccc2n1 (stereo partly drawn) |  | Not Active | 
CC(C)(C)NC(=O)[C@@H]1CC2CCCCC2CN1C[C@@H](O)[C@H](Cc1ccccc1)NC(=O)c1ccc2ccccc2n1 (stereo partly drawn) | 88.7 µM |  | 

Now from value to compound, other results behind:

IC50 ([1]; read-out: IC50) | IC50 [1] | Structure (SMILES) | other results
27.3 µM |  | CC(C)(C)NC[C@@H]1CC2CCCCC2CN1C[C@@H](O)[C@H](Cc1ccccc1)NC[C@@H](N)CCN (stereo partly drawn) | 
4.5 µM |  | CC(C)(C)NC[C@@H]1CC2CCCCC2CN1C[C@@H](O)[C@H](Cc1ccccc1)NC[C@H](CCN)NCC1Nc2ccccc2CC1O (stereo partly drawn) | 
12.5 µM |  | CC(C)(C)NC[C@@H]1CC2CCCCC2CN1C[C@@H](O)[C@H](Cc1ccccc1)NC[C@H](CCN)NC(=O)c1ccccn1 (stereo partly drawn) | 
10 µM |  | CC(C)(C)NC[C@@H]1CC2CCCCC2CN1C[C@@H](O)[C@H](Cc1ccccc1)NC[C@H](CCN)NC(=O)C1CCCCN1 (stereo partly drawn) | 
3.7 µM |  | CC(C)(C)NC[C@@H]1CC2CCCCC2CN1C[C@@H](O)[C@H](Cc1ccccc1)NC[C@H](CCN)NC(=O)c1ccc2ccccc2c1 (stereo partly drawn) | inhibition (Mus musculus [2]): Dose-dependent effect; inhibition (Mus musculus [3]): Active
6.9 µM |  | CC(C)(C)NC[C@@H]1CC2CCCCC2CN1C[C@@H](O)[C@H](Cc1ccccc1)NC[C@H](CCN)NCC1CCc2ccccc2N1 (stereo partly drawn) | 
19.7 µM |  | CC(C)(C)NC[C@@H]1CC2CCCCC2CN1C[C@@H](O)[C@H](Cc1ccccc1)NC(=O)[C@H](CCN)NC(=O)c1nc2ccccc2cc1O (stereo partly drawn) | 
7.3 µM |  | CC(C)(C)NC[C@@H]1CC2CCCCC2CN1C[C@@H](O)[C@H](Cc1ccccc1)NC[C@H](CCN)NC(=O)c1ccc2ccccc2n1 (stereo partly drawn) | 
